Laboratory results as given in ChEMBL document CHEMBL5338723, “Emerging Target-Directed Approaches for the Treatment and Diagnosis of Microbial Infections” (J Med Chem, 2023).
Values after ≈ are worked out from the molar mass of the structure shown.

Legend:
Assay type in all cases: functional
[1] = tested on: Acinetobacter genomosp. 13TU; assay: Antimicrobial activity against Acinetobacter nosocomialis assessed as microbial growth inhibition
Acinetobacter baumannii [2] = assay: Antimicrobial activity against Acinetobacter baumannii assessed as microbial growth inhibition
Escherichia coli [3] = assay: Antibacterial activity against Escherichia coli assessed as microbial growth inhibition
Escherichia coli [4] = assay: Antimicrobial activity against Escherichia coli UTI89 assessed as microbial growth inhibition
Enterococcus faecium = assay: Antimicrobial activity against vancomycin-resistant Enterococcus faecium ATCC 51559 assessed as microbial growth inhibition
Enterococcus faecalis = assay: Antimicrobial activity against vancomycin-resistant Enterococcus faecalis ATCC 51575 assessed as microbial growth inhibition
Staphylococcus aureus [5] = assay: Antimicrobial activity against vancomycin intermediate Staphylococcus aureus assessed as microbial growth inhibition
Staphylococcus aureus [6] = assay: Antimicrobial activity against methicillin-resistant Staphylococcus aureus ATCC 33591 assessed as microbial growth inhibition
Escherichia coli [7] = assay: Antimicrobial activity against Escherichia coli ATCC 25922 assessed as microbial growth inhibition
Escherichia coli [8] = assay: Antimicrobial activity against Escherichia coli NCTC 13441 assessed as microbial growth inhibition
Escherichia coli [9] = assay: Antimicrobial activity against Escherichia coli NCTC 13462 assessed as microbial growth inhibition
Escherichia coli [10] = assay: Antimicrobial activity against Escherichia coli NCTC 13846 assessed as microbial growth inhibition
Escherichia coli [11] = assay: Antimicrobial activity against Escherichia coli AR055 assessed as microbial growth inhibition
Escherichia coli [12] = assay: Antimicrobial activity against Escherichia coli AR089 assessed as microbial growth inhibition
Escherichia coli [13] = assay: Antimicrobial activity against Escherichia coli AR0114 assessed as microbial growth inhibition
Escherichia coli [14] = assay: Antimicrobial activity against Escherichia coli AR0137 assessed as microbial growth inhibition
Escherichia coli [15] = assay: Antimicrobial activity against Escherichia coli AR0150 assessed as microbial growth inhibition
Escherichia coli [16] = assay: Antimicrobial activity against Escherichia coli AR0346 assessed as microbial growth inhibition
Escherichia coli [17] = assay: Antimicrobial activity against Escherichia coli AR0349 assessed as microbial growth inhibition
Escherichia coli [18] = assay: Antimicrobial activity against Escherichia coli AR0350 assessed as microbial growth inhibition
Escherichia coli [19] = assay: Antimicrobial activity against Escherichia coli AR0493 assessed as microbial growth inhibition
Escherichia coli [20] = assay: Antimicrobial activity against Escherichia coli AR0494 assessed as microbial growth inhibition
Escherichia coli [21] = assay: Antimicrobial activity against Escherichia coli B096a assessed as microbial growth inhibition
Escherichia coli [22] = assay: Antimicrobial activity against Escherichia coli B808 assessed as microbial growth inhibition
Escherichia coli [23] = assay: Antimicrobial activity against Escherichia coli ATCC BAA-2340 assessed as microbial growth inhibition
Escherichia coli [24] = assay: Antimicrobial activity against Escherichia coli ATCC BAA-2469 assessed as microbial growth inhibition
Escherichia coli [25] = assay: Antimicrobial activity against Escherichia coli ExPEC H5 assessed as microbial growth inhibition
Escherichia coli [26] = assay: Antimicrobial activity against Escherichia coli H4/5 assessed as microbial growth inhibition
Escherichia coli [27] = assay: Antimicrobial activity against Escherichia coli IR3 assessed as microbial growth inhibition
Escherichia coli [28] = assay: Antimicrobial activity against Escherichia coli IR45 assessed as microbial growth inhibition
Escherichia coli [29] = assay: Antimicrobial activity against Escherichia coli IR57 assessed as microbial growth inhibition
Escherichia coli [30] = assay: Antimicrobial activity against Escherichia coli Swiss 2 (AF45) assessed as microbial growth inhibition
Escherichia coli [31] = assay: Antimicrobial activity against Escherichia coli Swiss 13 assessed as microbial growth inhibition
Escherichia coli [32] = assay: Antimicrobial activity against Escherichia coli Swiss 15 assessed as microbial growth inhibition
Escherichia coli [33] = assay: Antimicrobial activity against Escherichia coli BW25113 assessed as microbial growth inhibition
Escherichia coli [34] = assay: Antimicrobial activity against Escherichia coli JW0451-2 assessed as microbial growth inhibition
Acinetobacter baumannii [35] = assay: Antimicrobial activity against Acinetobacter baumannii ACC00527 assessed as microbial growth inhibition
Acinetobacter baumannii [36] = assay: Antimicrobial activity against Acinetobacter baumannii GS2AB1 assessed as microbial growth inhibition
Acinetobacter baumannii [37] = assay: Antimicrobial activity against Acinetobacter baumannii Naval-81 assessed as microbial growth inhibition

Question: Which results are given for CCCCCCCCCC(=O)N[C@@H](Cc1c[nH]c2ccccc12)C(=O)N[C@H](CC(N)=O)C(=O)N[C@@H](CC(=O)O)C(=O)N[C@@H]1C(=O)NCC(=O)N[C@@H](CCCNC(=O)[C@H](CCSC)NC(=O)[C@H](Cc2ccc(O)cc2)NC(=O)[C@H](CCCCN)NC(=O)[C@@H]2CCCN2C(=O)[C@H](CO)NC(=O)[C@H](Cc2c[nH]c3ccccc23)NC(=O)CN(CCCCNC(=O)c2cccc(O)c2O)C(=O)c2cccc(O)c2O)C(=O)N[C@@H](CC(=O)O)C(=O)N[C@H](C)C(=O)N[C@@H](CC(=O)O)C(=O)NCC(=O)N[C@H](CO)C(=O)N[C@@H](C(C)CC(=O)O)C(=O)N[C@@H](CC(=O)c2ccccc2N)C(=O)O[C@@H]1C (some centres undefined)?
Answer: MIC [1]: 1 µM (≈ 2.81 µg/mL); MIC (Acinetobacter baumannii [2]): 1 µM (≈ 2.81 µg/mL); MIC (Escherichia coli [3]): 1 µM (≈ 2.81 µg/mL)

Question: Which MIC (Escherichia coli [4]) does the source give for CN[C@H](CC(C)C)C(=O)N[C@H]1C(=O)N[C@@H](CC(N)=O)C(=O)N[C@H]2C(=O)N[C@H]3C(=O)N[C@H](C(=O)N[C@H](C(=O)O)c4cc(O)cc(O)c4-c4cc3ccc4O)[C@H](O)c3ccc(c(Cl)c3)Oc3cc2cc(c3O[C@@H]2O[C@H](CO)[C@@H](O)[C@H](O)[C@H]2O[C@H]2C[C@](C)(N)[C@H](O)[C@H](C)O2)Oc2ccc(cc2Cl)[C@H]1O [VANCOMYCIN] here?
Answer: Its MIC is 64 µg/mL (≈ 44.2 µM).

Question: And the MIC (Enterococcus faecium)?
Answer: The MIC was 750 µM (≈ 1090 µg/mL).

Question: And the MIC (Enterococcus faecalis)?
Answer: The MIC was 250 µM (≈ 362 µg/mL).

Question: What about the MIC (Staphylococcus aureus [5]) of the same molecule?
Answer: The MIC was 13 µM (≈ 18.8 µg/mL).

Question: And the MIC (Staphylococcus aureus [6])?
Answer: Its MIC is 0.63 µM (≈ 0.913 µg/mL).

Question: What about the MIC (Escherichia coli [7]) of the same molecule?
Answer: Its MIC is 64 µg/mL (≈ 44.2 µM).

Question: What about the MIC (Escherichia coli [8]) of the same molecule?
Answer: Its MIC is 64 µg/mL (≈ 44.2 µM).

Question: What about the MIC (Escherichia coli [9]) of the same molecule?
Answer: The MIC was 64 µg/mL (≈ 44.2 µM).

Question: What about the MIC (Escherichia coli [10]) of the same molecule?
Answer: The MIC was 64 µg/mL (≈ 44.2 µM).

Question: What about the MIC (Escherichia coli [11]) of the same molecule?
Answer: Its MIC is 64 µg/mL (≈ 44.2 µM).

Question: What about the MIC (Escherichia coli [12]) of the same molecule?
Answer: Its MIC is 64 µg/mL (≈ 44.2 µM).

Question: And the MIC (Escherichia coli [13])?
Answer: Its MIC is 64 µg/mL (≈ 44.2 µM).

Question: And the MIC (Escherichia coli [14])?
Answer: The MIC was 64 µg/mL (≈ 44.2 µM).

Question: And the MIC (Escherichia coli [15])?
Answer: Its MIC is 64 µg/mL (≈ 44.2 µM).

Question: What about the MIC (Escherichia coli [16]) of the same molecule?
Answer: Its MIC is 64 µg/mL (≈ 44.2 µM).

Question: What about the MIC (Escherichia coli [17]) of the same molecule?
Answer: The MIC was 64 µg/mL (≈ 44.2 µM).

Question: And the MIC (Escherichia coli [18])?
Answer: Its MIC is 64 µg/mL (≈ 44.2 µM).

Question: What about the MIC (Escherichia coli [19]) of the same molecule?
Answer: Its MIC is 64 µg/mL (≈ 44.2 µM).

Question: What about the MIC (Escherichia coli [20]) of the same molecule?
Answer: The MIC was 64 µg/mL (≈ 44.2 µM).

Question: And the MIC (Escherichia coli [21])?
Answer: Its MIC is 64 µg/mL (≈ 44.2 µM).

Question: What about the MIC (Escherichia coli [22]) of the same molecule?
Answer: The MIC was 64 µg/mL (≈ 44.2 µM).

Question: What about the MIC (Escherichia coli [23]) of the same molecule?
Answer: The MIC was 64 µg/mL (≈ 44.2 µM).

Question: And the MIC (Escherichia coli [24])?
Answer: Its MIC is 64 µg/mL (≈ 44.2 µM).

Question: What about the MIC (Escherichia coli [25]) of the same molecule?
Answer: Its MIC is 64 µg/mL (≈ 44.2 µM).

Question: And the MIC (Escherichia coli [26])?
Answer: Its MIC is 64 µg/mL (≈ 44.2 µM).

Question: And the MIC (Escherichia coli [27])?
Answer: The MIC was 64 µg/mL (≈ 44.2 µM).

Question: What about the MIC (Escherichia coli [28]) of the same molecule?
Answer: Its MIC is 64 µg/mL (≈ 44.2 µM).

Question: And the MIC (Escherichia coli [29])?
Answer: The MIC was 64 µg/mL (≈ 44.2 µM).

Question: And the MIC (Escherichia coli [30])?
Answer: Its MIC is 64 µg/mL (≈ 44.2 µM).

Question: What about the MIC (Escherichia coli [31]) of the same molecule?
Answer: The MIC was 64 µg/mL (≈ 44.2 µM).

Question: And the MIC (Escherichia coli [32])?
Answer: The MIC was 64 µg/mL (≈ 44.2 µM).

Question: And the MIC (Escherichia coli [33])?
Answer: The MIC was 64 µg/mL (≈ 44.2 µM).

Question: And the MIC (Escherichia coli [34])?
Answer: Its MIC is 64 µg/mL (≈ 44.2 µM).

Question: What about the MIC (Acinetobacter baumannii [35]) of the same molecule?
Answer: Its MIC is 64 µg/mL (≈ 44.2 µM).

Question: And the MIC (Acinetobacter baumannii [36])?
Answer: Its MIC is 64 µg/mL (≈ 44.2 µM).

Question: And the MIC (Acinetobacter baumannii [37])?
Answer: Its MIC is 64 µg/mL (≈ 44.2 µM).
